Reference: patent US9707239B2, “Compounds that modulate oxidative stress” (vTv Therapeutics LLC, priority 2011, dated 2017)
“Also recorded” adds a separate entry of the source.

Legend:
Format in all cases: cell-based, human
Nrf2 = assay: HMOX1 mRNA induction after Nrf2 siRNA silencing; details: NHLF cells, 50 nM siRNA 48 hours, FIG. 5
Experimental: Small interfering RNA targeting Nrf-2 (cat# SI03246614) or KEAP-1 (cat# SI03246439) were obtained from Qiagen at 20 nmol/tube. Negative control siRNA (cat#1027280) was also obtained from Qiagen. Lyophilized siRNA in each tube was resuspended with 1 ml of the provided siRNA Suspension Buffer to make a stock solution of 20 μM and tubes were heated at 90° C. for one minute and then at 37° C. for one hour prior to initial use.
Normal human lung fibroblasts were plated at 5000 cells/well in 96-well plates and allowed to attach. Prior to experiments, well s containing the cells were refreshed with 30 μl of complete growth medium. For each siRNA type, a 4× concentration (200 nM) of siRNA was prepared by adding 11 μl of siRNA stock into 1.1 ml of serum-free medium containing 9 μl/ml of SILENTFECT Lipid Reagent (BioRad, cat#170-3361). This solution was incubated at room temperature for 20 minutes prior to adding 10 μl into each well for a final concentration of 50 nM siRNA. Cells were incubated with siRNA for 48 hours, after which they were treated with compound for either 5 hours (QuantiGene RNA assay) or 15 hours (protein immunofluorescence assay).
The predicted response profile is that silencing of Nrf2 should reduce the amount of HMOX1 induction by Compound 13 and other HMOX1 inducers that are electrophiles or reactive compounds. To that end, Compound 13 and other tool compounds were tested in cells that were treated with siRNA directed to Nrf2. Following gene silencing with specific siRNA or control siRNA, the ability of tool compounds to induce HMOX1 mRNA was determined.

ATF4 = assay: mRNA expression (Quantigene Plex) in NHLF cells: ATF4; details: Table 5, 6 h, mRNA normalized to GAPDH, above DMSO treated cells
Experimental: (§1) Secondary growth of NHLF cells were used for all assays. Cell were thawed and then placed into culture in T225 flasks. The cells were grown to 80% confluency and harvested by washing once with HEPES buffered saline solution and then trypsinizing. Equal numbers (7×10^3 cells per well) of NHLF cells were plated in 96 well tissue culture plates (Corning). Cells were incubated overnight in FGM-2 medium prior to exposure to compound. Cells were treated with either DMSO or a compound as described below for 6 h. Preparation of cell lysates was carried out according to instructions using the Quantigene Reagent system 2.0 protocol (Panomics). mRNA induction was detected from cell lysate using the Quantigene Plex 2.0 Assay Kit (Panomics) on the Luminex platform (BIO-RAD). Expression of GAPDH mRNA was used as the internal control for the Quantigen Plex 2.0 Assay. The data in Tables 5 and 6 represents the fold change of target mRNA expression, normalized to control values, above DMSO treated cells.

Keap1 = assay: HMOX1 induction after Keap1 silencing (shRNA); details: NHLF cells, FIG. 6
Experimental: Normal human lung fibroblasts were plated in a 12-well tissue culture dish at 16,000 cells/well and allowed to attach overnight. Regular medium was then replaced with 200 μl of fresh growth medium containing 8 μg/ml hexadimethrine bromide (polybrene). Lentiviral transduction particles were then added in the following amounts: Control shRNA (1.1×10^7 TU/ml, Sigma, cat# SHC002V), 15 μl for an MOI of 10; KEAP-1 shRNA (6.3×10^6 TU/ml, Sigma, cat# SHCLNV-TRCN0000046092), 63 μl for an MOI of 20. After 4 hours in the cell culture incubator, another 200 μl of growth medium was added on top of the original volume. Cells were replenished the next day with fresh complete growth medium and were allowed to recover for 24 hours, after which selection medium was applied (complete medium with 1 μg/ml puromycin).
Another method of testing the role of the Nrf2 regulatory pathway on compound activity is to determine the effect of silencing Keap1 on HMOX1 gene expression. It is known that deleting Keap1 will result in the induction of Nrf2 dependent genes but not, to any significant degree, HMOX1. The proposed explanation for this observation is that HMOX1 requires the concomitant derepression of Bach1 activity and that this event is more dependent on active processes (e.g., heme binding, changes in redox potential of the cell, phosphorylation of Bach1, etc.). We therefore tested the ability of Compound 13 and tool compounds to induce HMOX1 in the presence of silencing of Keap1 in normal human lung fibroblasts.
Normal human lung fibroblasts were tested with DMSO, CoPP, Compound 13, and two derivatives including Compound 4 and Compound 8. An electrophile, Compound 1, was also included in the test set. […] On the other hand, induction of HMOX1 by the electrophile Compound 1 was inhibited.

HSPA6 = assay: mRNA expression (Quantigene Plex) in NHLF cells: HSPA6; details: Table 5, 6 h, mRNA normalized to GAPDH, above DMSO treated cells
Experimental: as §1

HMOX1 [1] = assay: Effect of NAC on compound induction of HMOX gene expression; details: NHLF cells pretreated with 5 mM NAC 1 hr, compound 6 h, FIG. 4
Experimental: NHLF cells were grown to 80% confluency and harvested by washing once with HEPES and then trypsinizing. Equal numbers (7×10^4 cells per well) of NHLF cells were plated in 96 well tissue culture (Corning) plates. Cells were incubated overnight in FGM-2 medium prior to exposure to compound. Cells were pretreated with 5 mM N-acetyl cysteine for 1 hr. Cells were treated with either DMSO or compound for 6 h. Preparation of cell lysates was carried out according to Quantigene Reagent system 2.0 protocol (Panomics). Heme oxygenase mRNA induction was detected from cell lysate using the Quantigene Plex 2.0 Assay Kit (Panomics) on the Luminex platform (BIO-RAD). Expression of GAPDH mRNA was used as the internal control for the Quantigen Plex 2.0 Assay. Heme oxygenase data represents the fold change, normalized to control values, above DMSO treated cells.
A further test of the hypothesis that Compound 13 induces HMOX1 with minimal alteration of cellular redox levels or chemical reactivity was carried out by treating cells with N-acetyl cysteine (NAC). This compound acts to restore cellular glutathione levels and thus prevent oxidative stress. The degree to which NAC can suppress HMOX1 induction is an indicator of the amount of chemical reactivity or ROS stress that a compound is imposing on the cell and thus activating phase II gene transcription. […] Coupled with the data shown in FIG. 3, it is concluded that Compound 13 induces HMOX1 with minimal elevation of ROS or NAC-sensitive chemical reactivity.

NQO1 = assay: mRNA expression (Quantigene Plex) in NHLF cells: NQO1; details: Table 5, 6 h, mRNA normalized to GAPDH, above DMSO treated cells
Experimental: as §1

ICAM = assay: mRNA expression (Quantigene Plex) in NHLF cells: ICAM; details: Table 5, 6 h, mRNA normalized to GAPDH, above DMSO treated cells
Experimental: as §1

HMOX1 [2] = assay: mRNA expression (Quantigene Plex) in NHLF cells: HMOX1; details: Table 5, 6 h, mRNA normalized to GAPDH, above DMSO treated cells
Experimental: as §1

TXNRD1 = assay: mRNA expression (Quantigene Plex) in NHLF cells: TXNRD1; details: Table 5, 6 h, mRNA normalized to GAPDH, above DMSO treated cells
Experimental: as §1

- ATF4 (fold induction) (ATF4): 1.2 fold induction
- HSPA6 (fold induction) (HSPA6): did not induce
- HSPA6 (fold induction) (HSPA6; listed as #13): 0.96 fold induction
- NQO1 (fold induction) (NQO1): shown to induce
- NQO1 (fold induction) (NQO1; listed as #13): 2.2 fold induction
- ICAM (fold induction) (ICAM): nor did it induce
- ICAM (fold induction) (ICAM; listed as #13): 1.1 fold induction
- HMOX1 (fold induction) (HMOX1 [2]): 25 fold induction
- TXNRD1 (fold induction) (TXNRD1): shown to induce
- TXNRD1 (fold induction) (TXNRD1; listed as #13): 1.5 fold induction
Compound: O=C(Nc1ccc2cn[nH]c2c1)c1ccc2[nH]c(Nc3nc4ccccc4s3)nc2c1 [Compound 13, 2-(Benzothiazol-2-ylamino)-1H-benzoimidazole-5-carboxylic acid (1H-indazol-6-yl)-amide]
- HMOX1 mRNA induction with siRNA directed to Nrf2 (Nrf2): affected by the presence of the siRNA for Nrf2; also recorded: requires Nrf2 for full induction of HMOX1 mRNA
- HMOX1 induction in the presence of Keap1 silencing (Keap1): unaffected in their ability to induce HMOX1 in the presence of Keap1 silencing; also recorded: behaves similarly to CoPP induction
- effect of N-acetyl cysteine (NAC) on HMOX1 induction (HMOX1 [1]): induces the greatest amount of HMOX1 with the least impact by NAC; also recorded: still induces HMOX1 expression in the presence of NAC
